# Measurements published in publication PMC5761330 (ACS chemical biology, 2017).
# Legend:
# E11.5 kidney rudiments = test: Embryonic kidney organ culture, branching morphogenesis; parameters: species or system mouse; details: 48 h, highest dose
# [1] = target: recombinant Pax2 paired domain (amino acids 1–170) / PRS oligo (Mus musculus, UniProt P32114); test: Electrophoretic mobility shift assay; assay type: biochemical; details: EMSA
# kidney organ cultures = test: Pax2 target gene expression in kidney organ cultures; parameters: species or system mouse; details: kidney organ culture, 48 h
# [2] = tested on: RCC111, TOV112D and ES-2 cells; test: Phospho-histone H3 Western blot, Pax2 positive cancer cell lines; assay type: cell-based; details: increasing amounts
# E11.5 lung rudiments = test: Embryonic lung organ culture, branching morphogenesis; parameters: species or system mouse; details: 48 h, increasing concentrations
# [3] = tested on: BRE-Luc (P-Smad mediated transactivation); test: BMP dependent luciferase reporter; assay type: cell-based; details: HEK293 cells, in the presence of BMP4, increasing amounts
# CMV-Luc = CMV-Luc counter-screen in HEK293 cells; assay type: cell-based; details: increasing concentrations
# [4] = tested on: 22Rv1, PC-3 and SK-OV-3 cells; test: Cell viability; assay type: cell-based; details: 48 h, 12.5 and 25 µM, Pax2 negative cells
# [5] = tested on: 22Rv1, PC-3 and SK-OV-3 cells; test: Phospho-histone H3 Western blot, Pax2 negative cancer cell lines; assay type: cell-based; details: increasing amounts
# Pax2 = Pax2 (Mus musculus, UniProt P32114); test: PRS4-EGFP reporter, Western blot of EGFP; assay type: cell-based; details: PRS4-EGFP cells, increasing concentrations
# Pax5 = Pax5 (Homo sapiens, UniProt Q02548); test: PRS4-Luc reporter activation by Pax5 in HEK293 cells; assay type: cell-based; details: dose response
# [6] = tested on: RCC111, TOV112D and ES-2 cells; test: Cell viability; assay type: cell-based; details: 48 h, 12.5 and 25 µM, Pax2 positive cells
# Pax8 = Pax8 (Homo sapiens, UniProt Q06710); test: PRS4-Luc reporter activation by Pax8 in HEK293 cells; assay type: cell-based; details: dose response
# Sequence of Pax8 (Q06710 whole entry, species assumed): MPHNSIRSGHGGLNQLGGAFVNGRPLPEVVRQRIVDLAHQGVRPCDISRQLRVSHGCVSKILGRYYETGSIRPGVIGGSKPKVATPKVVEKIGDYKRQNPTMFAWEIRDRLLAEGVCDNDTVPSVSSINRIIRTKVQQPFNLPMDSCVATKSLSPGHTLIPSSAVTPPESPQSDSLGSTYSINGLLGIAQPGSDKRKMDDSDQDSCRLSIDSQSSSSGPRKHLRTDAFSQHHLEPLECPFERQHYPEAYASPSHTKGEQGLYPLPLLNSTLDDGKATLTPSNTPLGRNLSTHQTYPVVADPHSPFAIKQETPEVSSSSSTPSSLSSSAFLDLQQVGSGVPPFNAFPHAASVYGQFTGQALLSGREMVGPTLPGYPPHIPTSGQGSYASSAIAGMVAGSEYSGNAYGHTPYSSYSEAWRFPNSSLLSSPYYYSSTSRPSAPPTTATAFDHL
# Sequence of recombinant Pax2 paired domain (amino acids 1–170) / PRS oligo (P32114 1-170): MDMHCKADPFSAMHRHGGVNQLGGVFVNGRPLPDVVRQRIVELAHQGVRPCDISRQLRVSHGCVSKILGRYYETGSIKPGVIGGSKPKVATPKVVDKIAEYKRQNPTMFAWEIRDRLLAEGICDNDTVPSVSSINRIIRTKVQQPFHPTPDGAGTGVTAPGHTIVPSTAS
# Sequence of Pax2 (P32114 1-391 isoform P32114-2): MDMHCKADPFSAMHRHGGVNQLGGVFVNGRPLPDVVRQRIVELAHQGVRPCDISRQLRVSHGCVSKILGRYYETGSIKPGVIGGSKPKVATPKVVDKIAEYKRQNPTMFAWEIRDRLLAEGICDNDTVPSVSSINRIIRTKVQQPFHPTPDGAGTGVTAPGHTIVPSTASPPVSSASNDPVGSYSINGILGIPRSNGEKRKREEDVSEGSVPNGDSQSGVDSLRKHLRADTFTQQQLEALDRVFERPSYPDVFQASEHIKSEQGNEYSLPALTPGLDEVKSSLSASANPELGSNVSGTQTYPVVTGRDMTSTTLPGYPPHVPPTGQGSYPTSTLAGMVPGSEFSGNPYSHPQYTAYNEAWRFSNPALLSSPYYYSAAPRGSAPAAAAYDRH
# Sequence of Pax5 (Q02548 whole entry, species assumed): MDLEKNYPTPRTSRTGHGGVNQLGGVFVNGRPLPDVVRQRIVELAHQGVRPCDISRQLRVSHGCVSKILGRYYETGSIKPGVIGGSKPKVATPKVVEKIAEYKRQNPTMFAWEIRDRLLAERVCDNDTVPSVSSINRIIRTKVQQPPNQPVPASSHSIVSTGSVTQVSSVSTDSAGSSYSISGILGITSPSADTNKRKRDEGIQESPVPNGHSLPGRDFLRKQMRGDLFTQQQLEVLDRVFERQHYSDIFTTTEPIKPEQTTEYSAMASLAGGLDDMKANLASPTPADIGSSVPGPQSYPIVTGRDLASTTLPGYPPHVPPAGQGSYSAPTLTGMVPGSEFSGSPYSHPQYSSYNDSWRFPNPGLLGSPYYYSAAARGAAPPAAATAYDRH
compound,measurement,setting,value
COc1ccccc1C(=O)Nc1ccc(C(=O)Nc2ccccc2C(=O)O)cc1 [EG1],Inhibition of branching morphogenesis,E11.5 kidney rudiments,up to 75%
same,Inhibition of Pax2-DNA binding,[1]; 10 µM,Significant inhibition
same,Inhibition of Pax2-DNA binding,[1]; 100 µM,near complete inhibition
same,"Cited1 and HNF4a expression, qRT-PCR",kidney organ cultures,clear reduction
same,"Cited1 expression, whole mount in situ hybridization",kidney organ cultures,dramatic reduction in expression levels
same,"FoxD1, Msx1 and Twist2 (stromal genes) expression, qRT-PCR",kidney organ cultures,increased levels
same,Levels of phospho–histone H3 (P–H3),[2],decreased levels of P–H3
same,Effect on branching morphogenesis,E11.5 lung rudiments,no change in branching morphogenesis
same,Effect on BRE-Luc reporter activity,[3],unaffected
same,Inhibition of CMV-Luc in the counter-screen,CMV-Luc,no inhibitory effect
same,Cell viability,[4],none of the Pax2 negative cells were affected
same,Levels of phospho–histone H3 (P–H3),[5],unchanged
same,Inhibition of Pax2 mediated expression of EGFP,Pax2,capable of inhibiting Pax2 mediated expression of EGFP
same,Inhibition of PRS4-Luc activation by Pax5,Pax5,able to inhibit
same,Cell viability,[6],significant decrease in cell viability
same,Inhibition of PRS4-Luc activation by Pax8,Pax8,able to inhibit
